≈ marks a conversion by molar mass, not a printed value.
Experiments:
HaCaT cells [1] = test: Cell viability, HaCaT, MTT and NRU endpoints taken together; format: cell-based; details: Homo sapiens, 24 h, span over or independent of endpoint method
Procedure: (§1) The immortal human keratinocyte (HaCaT) and the squamous cell carcinoma (A431) cell lines were obtained from Celltec UB. Cells were grown in DMEM medium (4.5 g/L glucose) supplemented with 10% (v/v) FBS, 2 mM L-glutamine, 100 U/mL penicillin and 100 µg/mL streptomycin at 37 °C, 5% CO2. Cells were routinely cultured in 75 cm^2 culture flasks and were trypsinized using trypsin–EDTA when the cells reached approximately 80% confluence. The trypan blue assay, which allows a direct identification and enumeration of live (unstained) and dead (blue) cells in a given population, was used to evaluate the viability of the cells in the cell suspension obtained.
(§2) HaCaT cells (1 × 10^5 cells/mL) and A431 cells (5 × 10^4 cells/mL) were grown at the defined densities in the 60 central wells of a 96-well plate. Cells were incubated for 24 h in 5% CO2 at 37 °C. Then, the spent medium was removed, and cells were incubated for 24 h with the corresponding compound solutions (1 mg/mL) previously diluted in the minimum amount of DMF (dimethylformamide) and then in DMEM medium supplemented with 5% FBS (100 µL) at the required concentration range (10–250 µg/mL). The viability of the cells upon incubation with the β-lactam derivatives was assayed using 2 different endpoints: NRU and MTT.
The neutral red uptake (NRU) assay is based on the accumulation of the dye in the lysosomes of viable cells. After the cells were incubated for 24 h with the corresponding systems, the medium was removed, and the solutions were incubated with the NR dye (Sigma-Aldrich, St. Louis, MO, USA) solution (50 µg/mL) dissolved in the medium without FBS and without phenol red (Lonza, Verviers, Belgium) for 3 h. […] The absorbance of the resulting solutions was measured at 550 nm (Bio-Rad 550 microplate reader, Bio-Rad California, Hercules, CA, USA). Finally, the effect of each treatment was calculated as the percentage of dye uptake by viable cells relative to the control cells (cells without any treatment).
Only living cells can reduce the yellow tetrazolium salt 3-(4,5-dimethyl-2-thiazolyl)-2,5-diphenyltetrazolium bromide (MTT) to insoluble purple formazan crystals. […] Agitation and determination of the absorbance of the extracted solution were performed under the same conditions, as described in Section 3.4.1. Finally, the effect of each treatment was calculated as the percentage of tetrazolium salt reduction by viable cells relative to the control cells (cells without any treatment).
(§3) The corresponding half-maximal inhibitory concentration (IC50) values for the different formulations as a function of cell line and endpoint were determined from the fitting of concentration-dependent viability curves.

A431 cells [2] = test: Cell viability, A431, MTT and NRU endpoints taken together; format: cell-based; details: Homo sapiens, A-431; A431, 24 h, span over or independent of endpoint method
Procedure: as §1, §2
(§4) The neutral red uptake (NRU) assay is based on the accumulation of the dye in the lysosomes of viable cells. After the cells were incubated for 24 h with the corresponding systems, the medium was removed, and the solutions were incubated with the NR dye (Sigma-Aldrich, St. Louis, MO, USA) solution (50 µg/mL) dissolved in the medium without FBS and without phenol red (Lonza, Verviers, Belgium) for 3 h. Cells were then washed with sterile PBS, followed by the addition of 100 µL of a solution containing 50% absolute ethanol and 1% acetic acid in distilled water to extract the dye. To promote total dissolution of the dye, plates were placed in a microtiter-plate shaker for 5 min at room temperature. The absorbance of the resulting solutions was measured at 550 nm (Bio-Rad 550 microplate reader, Bio-Rad California, Hercules, CA, USA). Finally, the effect of each treatment was calculated as the percentage of dye uptake by viable cells relative to the control cells (cells without any treatment).
(§5) Only living cells can reduce the yellow tetrazolium salt 3-(4,5-dimethyl-2-thiazolyl)-2,5-diphenyltetrazolium bromide (MTT) to insoluble purple formazan crystals. After 24 h of incubation of the cells with the corresponding NPs, the medium was removed, and 100 µL of MTT (Sigma-Aldrich, St. Louis, United States) in PBS (5 mg/mL) diluted 1:10 in culture medium without phenol red and without FBS (Lonza, Verviers, Belgium) was added to the cells. After 3 h of incubation, the medium was removed. Thereafter, 100 µL of DMSO (Sigma-Aldrich, St. Louis, MO, USA) was added to each well to dissolve the purple formazan crystals. Agitation and determination of the absorbance of the extracted solution were performed under the same conditions, as described in Section 3.4.1. Finally, the effect of each treatment was calculated as the percentage of tetrazolium salt reduction by viable cells relative to the control cells (cells without any treatment).
as §3

HaCaT cells [3] = test: Cell viability, MTT assay, HaCaT; format: cell-based; details: Homo sapiens, 24 h, MTT endpoint, 10–250 µg/mL tested
Procedure: as §1, §2, §5, §3

[4] = Hemolysis assay with human erythrocytes; format: cell-based; details: human erythrocyte suspension, PBS pH 7.4, mean ± SD; for hemolysis at 10 µg/mL: compound at 10 µg/mL; for hemolysis at 80 µg/mL: compound at 80 µg/mL
Procedure: Human blood samples were obtained from the Banc de Sang i Teixits de Barcelona (Spain) from the Catalan Department of Health. Blood was deposited in tubes with the anticoagulant EDTA-K3. Blood samples were centrifuged at 3000 rpm at 4 °C for 10 min (Megafuge 2.0 R. Heraeus Instruments, Hanau, Germany) to induce sedimentation. Plasma was extracted with a Pasteur pipette. Next, the residual pellet was washed with PBS at pH 7.4. This procedure was repeated three times to remove residual leukocytes and platelets and to concentrate the erythrocytes. Following the last wash, the erythrocyte suspension was diluted (1:1) in PBS at pH 7.4 to obtain a suitable erythrocyte suspension (cell density of 8 × 10^9 cell/mL).
The hemolysis assay determined the capability of the different compounds to induce hemolysis of the erythrocyte membrane. Stock solutions of each compound at 1 mg/mL in PBS at pH 7.4 were prepared. Different volumes (10–80 µL) were placed in polystyrene tubes, and an aliquot of 25 µL of the erythrocyte suspensions was added to each tube. The final volume was 1 mL. The tubes were incubated at room temperature under rotatory conditions. Next, the tubes were centrifuged at 10,000 rpm for 5 min. The supernatants’ absorbance at 540 nm (Shimadzu UV-160A, Shimadzu, Duisburg, Germany) was compared with that of the control samples hemolyzed with distilled water (positive control). The negative control was obtained by incubating an aliquot of 25 µL of the erythrocyte suspension with PBS at pH 7.4.
The degree of hemolysis was determined with the following equation:Hemolysis (%) = 100 × (Abs − Ab0)/(Abs100 − Abs0) where Abs, Abs0 and Abs100 are the absorbance of test samples, of the suspension treated with isotonic physiological buffer saline (PBS) and of the suspension of complete hemolysis treated with distilled water, respectively.

A431 cells [5] = test: Cell viability, MTT assay, A431; format: cell-based, human; details: for IC50: Homo sapiens, A-431, 24 h, A431, 24 h, MTT endpoint, 10–250 µg/mL tested; for SI MTT: SI = IC50 HaCaT / IC50 A431, MTT endpoint
Procedure: as §1, §2, §5, §3
(§6) The corresponding selectivity indexes toward tumoral cells were calculated as the following ratio:SI = IC50 (non-tumoral cell line)/IC50 (tumoral cell line) where HaCaT keratinocytes were used as close representatives of a skin model cell line under non-tumoral conditions.

[6] = Cell viability-screening assays (MTT and NRU), both cell lines; format: cell-based, human; details: human, HaCaT keratinocytes and A431 squamous cell carcinoma cells; HaCaT and A431, MTT and NRU, 24 h, 10–250 µg/mL; as a function of cell type and endpoint method; read-out: percentage viability compared to control cells
Procedure: as §1, §2, §4, §5

A431 cells [7] = test: Cell viability, NRU assay, A431; format: cell-based, human; details: for IC50: Homo sapiens, A-431, 24 h, A431, 24 h, NRU endpoint, 10–250 µg/mL tested; for SI NRU: SI = IC50 HaCaT / IC50 A431, NRU endpoint
Procedure: as §1, §2, §4, §3, §6

HaCaT cells [8] = test: Cell viability, NRU assay, HaCaT; format: cell-based, human; details: 24 h, NRU endpoint, 10–250 µg/mL tested; for IC50: Homo sapiens
Procedure: as §1, §2, §4, §3

[9] = tested on: human MCF-7 breast cancer cells; set-up: method as in PMID 21397510; details: cited from earlier work
HaCaT and A431 cells = test: Cell viability-screening assays (MTT and NRU), both cell lines; format: cell-based, human; details: regardless of the concentration range
Procedure: as §1, §2, §4, §5

[10] = human, pH 7.4, human RBC suspension

| Structure (SMILES) | IC50 (HaCaT cells [1]) [mg/L] | IC50 (A431 cells [2]) [mg/L] | IC50 (HaCaT cells [3]) [mg/L] | hemolysis at 10 µg/mL ([4]; human RBC suspension) [%] | hemolysis at 80 µg/mL ([4]; human RBC suspension) [%] | IC50 (A431 cells [5]) [mg/L] | SI MTT (A431 cells [5]) | viability at 24 h [6] [%] | IC50 (A431 cells [7]) [mg/L] | SI NRU (A431 cells [7]) | IC50 (HaCaT cells [8]) [mg/L] | IC50 [9] [nM] | hemolysis at 10 µg/mL [4, 10] [%] | hemolysis at 80 µg/mL [4, 10] [%] | selectivity against the cell type (HaCaT vs A431 cytotoxicity) (HaCaT and A431 cells) | IC50 HaCaT NRU (HaCaT cells [8]) [mg/L] |
| --- | --- | --- | --- | --- | --- | --- | --- | --- | --- | --- | --- | --- | --- | --- | --- | --- |
| CC(C)(C)N1C(=O)C(Cl)(Cl)C1c1ccccc1 (centres unmarked) [2b] | 20 to 49 (≈ 73.5 to 180 µM) | 30 to 47 (≈ 110 to 173 µM) | 19.8 (≈ 72.8 µM) | 0.01 ± 0.01 | 2.5 ± 0.97 | 46.9 (≈ 172 µM) | 0.42 | < 20 | 29.5 (≈ 109 µM) | 1.63 | 48.3 (≈ 177 µM) | – | – | – | – | – |
| COc1ccc([C@@H]2[C@@H](c3ccsc3)C(=O)N2c2cc(OC)c(OC)c(OC)c2)cc1O [II] | – | – | – | – | – | – | – | – | – | – | – | 10 | – | – | – | – |
| CC(C)N1C(=O)C(Cl)(Cl)C1c1ccccc1 (centres unmarked) [2j] | 40 to 42 (≈ 155 to 163 µM) | 38 to 76 (≈ 147 to 294 µM) | 42.1 (≈ 163 µM) | – | – | 76.2 (≈ 295 µM) | 0.55 | < 20 | 37.9 (≈ 147 µM) | 1.06 | 40.1 (≈ 155 µM) | – | 0.01 ± 0.01 | 0.02 ± 0.02 | – | – |
| CC(C)(C)N1C(=O)C(Cl)(Cl)C1c1cc(F)cc(F)c1 (centres unmarked) [2h] | > 250 | ~250 (≈ 811 µM) | > 250 | – | – | 250 (≈ 811 µM) | >1.0 | ≤ 50 | 250 (≈ 811 µM) | >1.0 | > 250 | – | 0.05 ± 0.05 | 0.12 ± 0.09 | the opposite results | – |
| Cc1ccccc1C1N(C(C)(C)C)C(=O)C1(Cl)Cl (centres unmarked) [2c] | – | – | ~250 (≈ 874 µM) | – | – | ~250 (≈ 874 µM) | 1.0 | ≤ 50 | > 250 | >1.0 | > 250 | – | 0.01 ± 0.01 | 0.01 ± 0.01 | – | – |
| O=C1N(C2CCCCC2)C(c2ccccc2)C1(Cl)Cl (centres unmarked) [2k] | – | > 250 | > 250 | – | – | 250 (≈ 838 µM) | >1.0 | < 20 | 220 (≈ 738 µM) | >1.13 | ~220 (≈ 738 µM) | – | ~0.25 | 0.3 ± 0.21 | – | >250 |
| Cc1ccc(C2N(C(C)(C)C)C(=O)C2(Cl)Cl)cc1 (centres unmarked) [2e] | 78 to 93 (≈ 273 to 325 µM) | 120 to 180 (≈ 419 to 629 µM) | 92.6 (≈ 324 µM) | – | – | 180 (≈ 629 µM) | 0.51 | < 20 | 121 (≈ 422 µM) | 0.65 | 78.8 (≈ 275 µM) | – | 0.01 ± 0.01 | 0.2 ± 0.23 | higher cytotoxicity in HaCaT cells than in A431 cells | – |
| COc1ccc([C@@H]2[C@@H](c3cccs3)C(=O)N2c2cc(OC)c(OC)c(OC)c2)cc1O [I] | – | – | – | – | – | – | – | – | – | – | – | 7 | – | – | – | – |
